Experimental findings from patent US4103019A, “Triterpene derivatives” (Laboratorios Landerlan, S. A., priority 1975, dated 1978) are described below.

Assay [1] deals with ulcers (Pyloric Ligature, M. Shay). In words: Anti-ulcer action, pyloric ligature ulcers (M. Shay). It counts as in vivo, rats.
In assay [2] the test system is ulcers (phenylbutazone). In words: Anti-ulcer action, phenylbutazone-induced ulcers. It counts as in vivo, rats. As to conditions: oral.
Assay [3] concerns ulcers (Psychosomatic Frustration, M. Bonfils). The experiment in a line: Anti-ulcer action, psychosomatic frustration ulcers (M. Bonfils). It counts as in vivo, rats. The conditions noted are these: oral.
The subject of assay [4] is different artificially invoked conditions. The experiment in a line: Neurotropic, musculotropic, antihistaminic, anti-ulcer and healing activity in different artificially invoked conditions. It counts as in vivo. As to conditions: different artificially invoked conditions in mice, rats, Guinea pigs, rabbits and dogs.
For assay [5], the system named is ulcers (reserpine). In words: Anti-ulcer action, reserpine-induced ulcers. It counts as in vivo, rats. The conditions noted are these: intra-peritoneal. From the text: Dose mg./Kg. Inhibition %
Reserpine 5 Intra-peritoneal

Turning to `CC1(C(=O)OCC2CCC[N+]2(C)C)CCC2(C)CCC3(C)C(=CC(=O)C4C5(C)CCC(O)C(C)(C)C5CCC43C)C2C1` (centres unmarked) [Example 4, 2(glycyrrhetinoyl methyl) N-methylpyrrolidine methylbromide], the Inhibition % in assay [1] (2.5 mg./Kg., intra-dermal) is given as 27%; in assay [1] (5 mg./Kg., intra-dermal), 29%; in assay [1] (5 mg./Kg., intra-peritoneal) it was 65%; in assay [1] (10 mg./Kg., intra-dermal), 24%; in assay [1] (10 mg./Kg., intra-peritoneal), 55%; in assay [2] (5 mg./Kg.) it was 22%. Besides, the Inhibition % was 23% in assay [2] (10 mg./Kg.); 52% in assay [3] (5 mg./Kg.); 43% in assay [3] (10 mg./Kg.); 25% in assay [3] (50 mg./Kg.); 8% in assay [5] (5 mg./Kg.); 47% in assay [5] (10 mg./Kg.). In assay [5] (25 mg./Kg.), this compound showed an Inhibition % of 13%. Also, the “activity as neurotropic, musculotropic antihistaminic, anti-ulcer and healing agents” value in assay [4] is recorded as “outstanding activity”.
Take `CC1(C(=O)OCC2CCC[N+]2(C)C)CCC2(C)CCC3(C)C(=CC(=O)C4C5(C)CCC(O)C(C)(C)C5CCC43C)C2C1` (centres unmarked) [Example 3, 2-(glycyrrhetinoylmethyl) N-methyl pyrrolidine methylsulfate]: the Inhibition % in assay [1] (2.5 mg./Kg., intra-peritoneal) came to 52%; in assay [1] (5 mg./Kg., intra-dermal) it was 36%; in assay [1] (10 mg./Kg., intra-peritoneal), 69%; in assay [1] (15 mg./Kg., intra-peritoneal) it was 48%; in assay [1] (25 mg./Kg., intra-peritoneal), 69%; in assay [3] (5 mg./Kg.), 42%. The Inhibition % in assay [3] (10 mg./Kg.) is reported as 33%; in assay [3] (20 mg./Kg.) it was 18%; in assay [5] (5 mg./Kg.), 42%; in assay [5] (10 mg./Kg.), 25%; in assay [5] (25 mg./Kg.) it was 25%. Besides, in assay [4], the “activity as neurotropic, musculotropic antihistaminic, anti-ulcer and healing agents” value is given as “outstanding activity”.
